Reference: patent US8344180B2, “Hydrazine amide derivative” (Shionogi & Co., Ltd., priority 2006, dated 2013)

The molecules below were run against T1, human NPY Y5 receptor (Homo sapiens, UniProt Q15761) (assay: Affinity for NPY Y5 receptor ([125I] peptide YY binding to CHO cell membranes)). Details: membranes from CHO cells expressing NPY Y5 receptor; [125I] peptide YY 60 pM; 25° C., 2 hours; read-out: 50% inhibitory concentration of the test-compound against the specific peptide YY binding (IC50 value).
T1 construct: expressed in transfected cells; membranes used
T1 sequence (Q15761 1-445): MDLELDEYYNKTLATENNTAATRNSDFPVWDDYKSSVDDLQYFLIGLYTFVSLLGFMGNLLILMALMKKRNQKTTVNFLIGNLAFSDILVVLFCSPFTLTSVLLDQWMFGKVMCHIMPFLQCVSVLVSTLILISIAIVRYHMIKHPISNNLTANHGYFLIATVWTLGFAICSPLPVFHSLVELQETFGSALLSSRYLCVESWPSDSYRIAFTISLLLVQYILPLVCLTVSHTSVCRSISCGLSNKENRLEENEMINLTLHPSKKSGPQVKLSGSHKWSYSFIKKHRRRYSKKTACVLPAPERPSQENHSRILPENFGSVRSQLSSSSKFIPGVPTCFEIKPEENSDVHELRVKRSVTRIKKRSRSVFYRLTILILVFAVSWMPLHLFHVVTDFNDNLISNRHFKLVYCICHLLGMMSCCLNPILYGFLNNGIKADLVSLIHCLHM
Excerpt: Experiment 1: Affinity for NPY Y5 Receptor
cDNA sequence encoding a human NPY Y5 receptor (WO96/16542) was cloned in a vector pME18S (Takebe et al. Mol. Cell. Biol. 8, 8957). The obtained expression vector was transfected into CHO cells as a host by using Lipofect AMINE reagent (Trademark, Gibco BRL Co., Ltd.) according to the instruction manual. The cells that stably express NPY Y5 receptor were obtained.
The membranes prepared from the CHO cells expressing NPY Y5 receptor, the compound of the present invention and 30,000 cpm [^125I] peptide YY (60 pM of final concentration: Amersham) were incubated in the assay buffer (20 mM HEPES-Hanks buffer containing 0.1% bovine serum albumin, pH 7.4) at 25° C. for 2 hours, and then the membrane was filtered from the mixture through a glassfilter (GF/C) presoaked with 1% polyethyleneimine. After washing with 50 mM Tris-HCl buffer (pH 7.4), radioactivity retained on the filters was quantified with a gamma counter. Nonspecific binding was defined as the amount of radioactivity bound to the membranes after incubation in the presence of 200 nM of peptide YY. The 50% inhibitory concentration of the test-compound against the specific peptide YY binding (IC50 value) was calculated (Inui, A. et al. Endocrinology 131, 2090-2096 (1992)).

| IC50 [nM] | Structure (SMILES) |
| --- | --- |
| 2.3 | CC(C)(C)S(=O)(=O)N[C@H]1CC[C@H](C(=O)NNc2ccc(Cl)c(Cl)c2)CC1 [Example I-4] |
| 1.1 | CC(C)S(=O)(=O)N[C@H]1CC[C@H](C(=O)NNc2ccc(Cl)c(Cl)c2)CC1 [Example I-8] |
| 0.88 | CC(C)(C)S(=O)(=O)N[C@H]1CC[C@H](C(=O)NNc2cccc3ccccc23)CC1 [Example I-17] |
| 1.12 | CC(C)(C)S(=O)(=O)N[C@H]1CC[C@H](C(=O)NNc2cccc(-c3ccccc3)c2)CC1 [Example I-23] |
